Experimental data taken from patent US20260315608A1, “Carrier Peptide Fragment and Use Thereof” (TOAGOSEI CO., LTD., priority 2022, published 2026).
Primed or numbered codes have the meaning given here. FAM″ = C-terminal FAM dye

Test system: NSC-34 cells
Experiment: Evaluation on cell membrane permeability by flow cytometry (median fluorescence intensity)
Assay type: cell-based, mouse
Conditions: for MFI (median fluorescence intensity): 25 μM in well, 0.42% DMSO, 20 hours at 37° C., 10% FBS-containing DMEM, detector FL2; for cell membrane permeability: 25 μM, 20 hours, FAM as foreign substance, in words
Description: As the eukaryotic cells, NSC-34 cells (mouse motor neuron-like hybrid cell line) were used and the cell membrane permeability of the samples 1 to 7 was analyzed. In Examples 1 to 7, the prepared sample solutions 1 to 7 were used, respectively, and in Example 8, a FAM solution was used.
The NSC-34 cells were cultured in 10% fetal bovine serum (FBS)-containing Dulbecco's modified Eagle's medium (DMEM (Cat No. 044-29765, manufactured by FUJIFILM Wako Pure Chemical Corporation)), which is a normal culture medium.
The NSC-34 cells that adhered to a culture plate were cleaned with PBS and then, a 0.25%-trypsin/EDTA solution was added thereto, and incubation was performed for three minutes at 37° C. After the incubation, the aforementioned 10% FBS-containing DMEM was added to deactivate trypsin and then, five-minute centrifugal separation was performed at 150×g to precipitate the cells. After the supernatant generated by the centrifugal separation was removed, the 10% FBS-containing DMEM was added to the precipitate (cell pellet) to prepare a cell suspension of about 2×10^5 cells/mL. The cell suspension was added by 1 mL to a well of a commercially available six-hole (well) plate (manufactured by AGC TECHNO GLASS Co., Ltd.) so as to seed the cell (about 2×10^5 cells/well). In addition, the 6 mM sample solution 1 was diluted with the 10% FBS-containing DMEM to prepare the sample solution 1 in which the concentration of the sample 1 was 50 μM. Then, 1 mL of the 50 μM sample solution 1 was added to the well (that is, so that the concentration of the sample 1 became 25 µM and the DMSO concentration became 0.42% in the culture solution in the well). After that, the cell was incubated for 20 hours at 37° C. under a 5% CO2 condition.
After the 20-hour incubation, the culture supernatant was removed from the well and the cells in the well were cleaned twice with 1 mL of PBS. Next, 200 μL of the 0.25% trypsin/EDTA solution was added to the well and the incubation was performed for three minutes at 37° C. After the incubation, 400 μL of the 10% FBS-containing DMEM was added to the well to deactivate the trypsin. Subsequently, the cell suspension in the well was transferred to a tube and the cells were collected. After that, 600 μL of PBS was added further to the well to clean the well. Then, PBS in the well was transferred to the tube, so that the cells remaining in the well were collected in the tube. This tube was subjected to five-minute centrifugal separation at 4° C. under a condition of 210×g. After the centrifugal separation, the supernatant was removed and the precipitate (cell pellet) was suspended (cleaned) with 1 mL of PBS, which was followed by the centrifugal separation under the same condition as that described above. After this operation was repeated twice, the supernatant was removed and thus, the cells (cell pellet) cultured in a culture medium containing the sample 1 were obtained.
Regarding the obtained cells (cell pellet), the cell membrane permeability of the sample 1 was analyzed using a flow cytometer. As the flow cytometer, On-Chip Flowcytometer (manufactured by On-Chip Biotechnologies Co., LTD.) was used.
For such an analysis, the obtained cell pellet was suspended with 100 μL of on-chip T buffer to prepare a cell suspension for analysis.
Using the aforementioned flow cytometer, gating based on forward scatter (FSC) and side scatter (SSC) was performed to set a gate about a cell group to be analyzed, and the fluorescence intensity was measured about the cell group in this gate. Note that the analysis was performed so that the cell group contained at least 10000 cells or more. The fluorescence intensity was measured using a fluorescence detector FL2 of the flow cytometer (optimum detection wavelength around 543 nm) capable of detecting the fluorescence wavelength of FAM. […]

Row | Substance | MFI (median fluorescence intensity) | cell membrane permeability
1 | 5 (6)-carboxyfluorescein [Example 8, reference compound] | 11 | 
2 | Ac-KKRTLRKDERKKR-FAM (Ac-KKRTLRKDERKKR-{FAM}) [Example 1] | 16.3 | have the cell membrane permeability
3 | Ac-KKRTLRKEDEDEDRKKR-FAM (Ac-KKRTLRKEDEDEDRKKR-{FAM}) [Example 7] | 14.3 | 
4 | Ac-KKRTLRKEDRKKR-FAM (Ac-KKRTLRKEDRKKR-{FAM}) [Example 2] | 15.7 | have the cell membrane permeability
5 | Ac-KKRTLRKDEDERKKR-FAM (Ac-KKRTLRKDEDERKKR-{FAM}) [Example 6] | 15.2 | 
6 | Ac-KKRTLRKEEDDRKKR-FAM (Ac-KKRTLRKEEDDRKKR-{FAM}) [Example 4] | 14.3 | 
7 | Ac-KKRTLRKEDEDRKKR-FAM (Ac-KKRTLRKEDEDRKKR-{FAM″}) [Example 3] | 13.8 | 
8 | Ac-KKRTLRKDDEERKKR-FAM (Ac-KKRTLRKDDEERKKR-{FAM}) [Example 5] | 14.8 | 
